Laboratory results reported in patent US12350290B2, “Compositions and methods that promote hypoxia or the hypoxia response for treatment and prevention of mitochondrial dysfunction and oxidative stress disorders” (The General Hospital Corporation, priority 2015, dated 2025).

Key:
K562 cells = assay: Mitochondrial disease model: K562 cell growth with Antimycin; type: cell-based; settings: three weeks
Protocol: Mitochondrial disease was modeled in the suspension cell line, K562, and a CRISPR screen was performed to identify potential drug targets. The natural product, Antimycin, was used as a complex III inhibitor of the respiratory chain. In the presence of Antimycin, the respiratory chain is unable to oxidize high energy reducing equivalents to power ATP production. However, redox recycling by the cytoplasmic lactate dehydrogenase reaction, allows other NAD+ dependent reactions to proceed. […] Mitochondrial disease was modeled with the addition of Antimycin alone (moderate disease) or Antimycin in combination with removal of pyruvate (severe disease), using cell growth as a proxy for disease magnitude (FIG. 3). K562 cells were infected with a ˜65,000 sgRNA library, targeting ˜18,000 genes (Shalem et al., Science, 343:84-88 (2014)). After one week of genome editing, the pool of knockout cells were divided into experimental conditions of untreated, moderate disease and severe disease states (FIG. 4). Samples for an enrichment screen were collected by allowing the knockout pool to grow in selection conditions for three weeks. The relative growth between untreated and moderate disease conditions was 100-fold and between untreated and severe disease conditions was 10,000-fold (FIG. 5). […]

HIF1α = HIF1α stabilization in cell culture; type: cell-based; settings: for effect of respiratory chain inhibition on HIF1α stabilization: hypoxia, respiratory chain inhibitor alone
From the text: It has previously been noted that a paradox exists between mitochondrial dysfunction and cellular sensing of hypoxia (Chandel et al., Proc. Natl. Acad. Sci. U.S.A. 95:11715-20 (1998)). In cell culture, inhibition of the respiratory chain prevents HIF stabilization, even under low oxygen conditions that would otherwise trigger the hypoxia response. Proposed explanations include higher cellular oxygen tensions and […] ROS production during states of mitochondrial dysfunction. While this phenomenon has been noted in the hypoxia field, it has received less attention in the context of mitochondrial disease pathogenesis. If such a paradox extends to mitochondrial disease patients, such individuals may be unable to stabilize HIF in physiological conditions of hypoxia.

zebrafish embryos = assay: Zebrafish embryo survival with Antimycin
[1] = tested on: HT-29s, HEK 293s and K562s; assay: Rescue of growth defect caused by respiratory chain inhibition; type: cell-based
From the text: After VHL was confirmed as an effective therapeutic target for mitochondrial disease, clinically-relevant options for triggering the hypoxia response were studied. While a VHL-inhibitor has been reported (Buckley et al., J. Am. Chem. Soc. 134:4465-68 (2012)), it is not cell permeable. However, PHD inhibitors have been extensively developed for the treatment of anemia of chronic kidney disease and ischemic injury (Rabinowitz, J. Med. Chem. 56:9369-9402 (2013)). The small molecule PHD inhibitor, FG-4592, also known as roxadustat, is currently in Phase III clinical trials for chronic kidney disease. […] FG-4592 treatment may mimic VHL-knockout, thus triggering a broader hypoxia transcriptional program. Compounds that trigger the hypoxia response including VHL-inhibitors and PHD inhibitors are therapeutics for mitochondrial dysfunction. Pre-treatment and incubation with FG-4592 almost completely rescued the growth defects caused by deficiency of multiple respiratory complexes, in multiple cell lines (FIGS. 12-13). […] Complex I, III or V inhibition stunts cell growth in most cell lines, including HT-29s, HEK 293s and […]. […] The nearly full rescue of the disease state across different cell lines and across chemical lesions highlights the general utility of this approach.

[2] = tested on: HIF-responsive genes (HK2, GLUT1, LDHA, PDK1); assay: Transcription of energy metabolism genes (hypoxia transcriptional program); type: cell-based
From the text: The HIF transcriptional response is believed to be protective during states of hypoxia, at least in part by causing a rewiring of energy metabolism. By shifting from aerobic respiration to anaerobic glycolysis, the HIF1α response can maintain the energy supply at low oxygen tensions. FG-4592 caused normoxic stabilization of HIF proteins. […] Glucose import and phosphorylation are rate-limiting steps in the glycolytic flux of many tissues. […] HIF1α activation is also known to shunt the carbon supply away from the TCA cycle and towards the LDH reaction. Several mechanisms have been proposed for this shift away from aerobic respiration, including pyruvate dehydrogenase phosphorylation. […] Thus, cells were unable to mount the appropriate transcriptional response by endogenous mechanisms.

HT-29 cells = assay: Anaerobic glycolysis measured as lactic acid; type: cell-based; settings: basal conditions and with respiratory chain inhibition
From the text: (§1) The shift in energy metabolism was confirmed by measuring lactic acid as the end-product of anaerobic glycolysis and oxygen consumption as a proxy for aerobic respiration. […] Thus cells are able to shift towards glycolysis using endogenous defense mechanisms; however, a transcriptional response is needed to increase the glycolytic flux enough to maintain cellular growth rates. Furthermore, basal oxygen consumption was decreased with FG-4592 treatment. This may be protective in the setting of mitochondrial dysfunction, as it may limit the amount of ROS produced by impaired electron transport. Genetic and small molecule activation of the HIF pathway enabled cells to cope with mitochondrial dysfunction at multiple steps of the electron transport chain and in multiple cell types. The small molecule, FG-4592, normoxically stabilized HIF and thereby increased glycolysis beyond allosteric mechanisms. Furthermore, it bypassed the paradox between mitochondrial dysfunction and HIF stabilization during hypoxia.

multiple cell types = assay: Oxygen consumption as proxy for aerobic respiration; type: cell-based; settings: FG-4592 treatment
From the text: as §1

[3] = tested on: hypoxia response elements (HREs) fused to GFP; assay: Zebrafish hypoxia reporter strain (HRE-GFP) fluorescence; type: in vivo; settings: 6 hours of exposure to 2.5 μM FG-4592
From the text: A zebrafish reporter strain was used to monitor activation of the hypoxia transcriptional response (Santhakumar et al., Cancer Res. 72, 4017-27 (2012)). The reporter fish has a promoter containing hypoxia response elements (HREs) fused to GFP. Hypoxia exposure or VHL knockdown causes an increase in GFP expression, allowing for in vivo monitoring of the hypoxia response. This model system could be used to monitor drug-target engagement and pharmacodynamics of a HIF activator (Chowdhury et al., ACS Chem Biol. 8:1488-96 (2013)).
Antimycin inhibits oxygen consumption of zebrafish embryos (Stackley, et al., PLOS One. 6, e25652 (2011)).

Molecule	relative growth between untreated and moderate disease conditions (K562 cells; moderate disease: 100 nM Antimycin with 1 mM pyruvate) [fold]	relative growth between untreated and severe disease conditions (K562 cells; severe disease: 100 nM Antimycin without pyruvate)	effect of respiratory chain inhibition on HIF1α stabilization (HIF1α)	toxicity to zebrafish embryos (zebrafish embryos; prolonged treatment at low nanomolar concentrations)	rescue of growth under ATP synthase inhibition ([1]; ATP synthase inhibition)	normal growth rates ([1]; no respiratory chain inhibition)	rescue of growth defect from Complex I, III or V inhibition ([1]; ~50 uM FG-4592 in advance and during respiratory chain dysfunction, dose-dependent)	HIF1α stabilization (HIF1α; hypoxic conditions)	HIF1α stabilization during respiratory chain inhibition (HIF1α; mitochondrial dysfunction, normoxia or hypoxia)	HIF1α stabilization (HIF1α; normoxic conditions)	transcription of glucose transporter 1 (GLUT1) ([2]; FG-4592 for 24 h)	transcription of hexokinase 2 (HK2) ([2]; FG-4592 for 24 h)	transcription of lactate dehydrogenase (LDHA) ([2]; FG-4592 treatment)	transcription of pyruvate dehydrogenase kinase (PDK1) ([2]; after FG-4592 treatment)	hypoxia transcriptional program ([2]; during respiratory chain inhibition)	increase of glycolysis (HT-29 cells) [%]	basal oxygen consumption (multiple cell types)	fluorescence of reporter fish [3]	survival of zebrafish embryos (zebrafish embryos; intermediate concentrations of Antimycin)
Antimycin	100	10,000 fold	prevented HIF1α stabilization during hypoxia	resulted in death of embryos															
CC[C@H]1/C=C/C=C/C[C@@H](C)[C@H](O)[C@@](C)(O)C(=O)[C@@H](C)[C@H](O)[C@@H](C)C(=O)[C@@H](C)[C@H](O)[C@@H](C)/C=C/C(=O)O[C@@H]2[C@H](C)[C@H](CC1)O[C@]1(CC[C@H](C)[C@H](C[C@@H](C)O)O1)[C@H]2C [Oligomycin]			prevented HIF1α stabilization during hypoxia																
Cc1nc(C(=O)NCC(=O)O)c(O)c2ccc(Oc3ccccc3)cc12 [FG-4592, N-[(4-hydroxy-1-methyl-7-phenoxy-3-isoquinolinyl)carbonyl]glycine]					significantly rescued	minimally increased	nearly or completely rescued this growth defect	stabilized HIF1α beyond the endogenous hypoxia response of untreated cells	enabled HIF1α stabilization in the face of mitochondrial dysfunction	stabilized the transcription factor even during normoxia	upregulated in multiple cell types	upregulated in multiple cell types	similarly upregulated	significant upregulation	triggered the hypoxia transcriptional program, even during respiratory chain inhibition	~60	decreased	robust increase in fluorescence	nearly doubled survival
